PubChem BioAssay AID1963974 (Molecular Pharmacology Branch, DTP, NCI, 2024)

System: 648629-189-R-J1-PDC spheroids with HUVEC/MSC, viability
Assay: Anticancer human tumor 648629-189-R-J1-PDC patient-derived bladder carcinoma cell line growth inhibition [PI3K]
Details: for IC50: curve of first compound; for viability, T/C: stronger effect = lower value
Text: Combinatorial screen of targeted agents with the PI3K inhibitors inavolisib, alpelisib, duvelisib, and copanlisib in multi-cell type tumor spheroids
A high-throughput screen of multi-cell type tumor spheroids was designed to identify active combinations of targeted small molecules and PI3K pathway inhibitors. Complex spheroids include a stromal component modeled by human endothelial cells (HUVEC) and fibroblasts modeled by human mesenchymal stem cells (MSCs). The concentration ranges selected for each drug and investigational agent were based upon clinically achievable concentrations if the clinical Cmax of the agent was known.
Compounds. The drugs and investigational agents: inavolisib (NSC800729), alpelisib (NSC765974), duvelisib (NSC772469), copanlisib (NSC816437), ipatasertib (NSC767898), afuresertib (NSC778305), talazoparib (NSC767125), sapanisertib (NSC764658), selumetinib (NSC741078), tovorafenib (DAY101, NSC766906), vemurafenib (NSC761431), ravoxertinib (NSC781343), sotorasib (NSC818433), MRTX1133 (NSC 836407), abemaciclib (NSC 768073), palbociclib (NSC758247), venetoclax (NSC 766270), SY5609 (NSC837396), enzalutamide (NSC755605), and darolutamide (NSC825331), were obtained from the National Cancer Institute (NCI) Developmental Therapeutics Program Chemical Repository. The FDA-approved anticancer drug set is available from the NCI Developmental Therapeutics Program. […] The stock solutions were prepared in dimethyl sulfoxide (DMSO, Sigma-Aldrich, St. Louis, MO, cat. D2650) at 800-fold the tested concentration and stored at -70 degrees C prior to their use. All drugs and investigational agents were tested over a range starting from a high concentration at or near the clinical Cmax and decreasing in half-log increments. If the clinical Cmax for an agent had not been determined, the highest concentration tested was 10 microM.
Cell Culture. All cells were maintained in an incubator at 37 degrees C and 5% CO2 with 95% humidity. The PDC lines were cultured according to standard operating procedures established by the NCI PDMR (https://pdmr.cancer.gov/sops/default.htm). All PDCs were thawed and cultured in Matrigel-coated flasks prepared with a working solution of 1X Ham's F-12 nutrient mix, without supplementation (Invitrogen, Waltham, MA, cat. 11765054), 100 U/mL penicillin-streptomycin (Invitrogen, cat. 15140122), and 2.5% Matrigel (Corning Inc., Corning, NY, cat. 354248) for the first three passages. The 354836-022-R-J1-PDC, 475296-252-R-J1-PDC, and 997726-040-R-J2-PDC lines were cultured in 6A media, which includes advanced DMEM/F-12 (Thermo Fisher Scientific, cat. 12634028), 10 mM HEPES (Thermo Fisher Scientific, cat. 15630080), 1X GlutaMAX supplement (Thermo Fisher Scientific, cat. 35050061), 0.1 mg/mL primocin (InvivoGen, San Diego, CA, cat. ant-pm-2), 10% defined fetal bovine serum, heat inactivated (HyClone Laboratories Inc., Logan, UT, cat. SH30070.03HI), 50% L-WRN conditioned media (ATCC, cat. CRL-3276), 1.25 mM N-Acetyl-L-cysteine (Sigma-Aldrich, cat. A9165), 10 mM nicotinamide (Sigma-Aldrich, cat. N0636), 1X B-27 supplement (Thermo Fisher Scientific, cat. 17504044), 1X N-2 supplement (Thermo Fisher Scientific, cat. 17502048), and 10 microM Y-27632 dihydrochloride (Tocris Bioscience, Bristol, United Kingdom, cat. 1254). The 624824-186-R-J2-PDC line was cultured in 6C/Colon 1B media, which includes all 6A media components plus 50 ng/mL human EGF recombinant protein (Thermo Fisher Scientific, cat. PHG0311). […]

[1] = second compound 0.00316 µM, first compound 0.0316 µM
[2] = second compound 0.00316 µM, first compound 0.1 µM
[3] = second compound 0.00316 µM, first compound 0.316 µM
[4] = second compound 0.00316 µM, first compound 1 µM
[5] = second compound 0.01 µM, first compound 0.0316 µM
[6] = second compound 0.01 µM, first compound 0.1 µM
[7] = second compound 0.01 µM, first compound 0.316 µM
[8] = second compound 0.01 µM, first compound 1 µM
[9] = second compound 0.0316 µM, first compound 0.0316 µM
[10] = second compound 0.0316 µM, first compound 0.1 µM
[11] = second compound 0.0316 µM, first compound 0.316 µM
[12] = second compound 0.0316 µM, first compound 1 µM
[13] = second compound 0.1 µM, first compound 0.0316 µM
[14] = second compound 0.1 µM, first compound 0.1 µM
[15] = second compound 0.1 µM, first compound 0.316 µM
[16] = second compound 0.1 µM, first compound 1 µM
[17] = second compound 0.316 µM, first compound 0.0316 µM
[18] = second compound 0.316 µM, first compound 0.1 µM
[19] = second compound 0.316 µM, first compound 0.316 µM
[20] = second compound 0.316 µM, first compound 1 µM
[21] = second compound 1 µM, first compound 0.0316 µM
[22] = second compound 1 µM, first compound 0.1 µM
[23] = second compound 1 µM, first compound 0.316 µM
[24] = second compound 1 µM, first compound 1 µM
[25] = second compound 0.00316 µM, first compound 0.00316 µM
[26] = second compound 0.00316 µM, first compound 0.01 µM
[27] = second compound 0.01 µM, first compound 0.00316 µM
[28] = second compound 0.01 µM, first compound 0.01 µM
[29] = second compound 0.0316 µM, first compound 0.00316 µM
[30] = second compound 0.0316 µM, first compound 0.01 µM
[31] = second compound 0.1 µM, first compound 0.00316 µM
[32] = second compound 0.1 µM, first compound 0.01 µM
[33] = second compound 0.316 µM, first compound 0.00316 µM
[34] = second compound 0.316 µM, first compound 0.01 µM
[35] = second compound 1 µM, first compound 0.00316 µM
[36] = second compound 1 µM, first compound 0.01 µM
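Also: spheroids exposed to agents for seven days before reading.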
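For viability, T/C in this document: percent of vehicle control luminescence where 100% = DMSO treated spheroids.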

CC(C)NCC(C(=O)N1CCN(c2ncnc3c2C(C)CC3O)CC1)c1ccc(Cl)cc1 (stereo unspecified) + CC(Nc1ccc2c(c1)OCCn1cc(N3C(=O)OCC3C(F)F)nc1-2)C(N)=O
IC50 (second compound 0.00316 µM): 1280 nM | IC50 (second compound 0.01 µM): 1010 nM | IC50 (second compound 0.0316 µM): 870 nM | IC50 (second compound 0.1 µM): 1150 nM | IC50 (second compound 0.316 µM): 645 nM | IC50 (second compound 1 µM): 437 nM | viability, T/C [1]: 110% | viability, T/C [2]: 97.4% | viability, T/C [3]: 91.8% | viability, T/C [4]: 54.9% | viability, T/C (second compound 0.00316 µM, first compound 3.16 µM): 27.3% | viability, T/C (second compound 0.00316 µM, first compound 10 µM): 13.5% | viability, T/C [5]: 95.5% | viability, T/C [6]: 105% | viability, T/C [7]: 81% | viability, T/C [8]: 50.2% | viability, T/C (second compound 0.01 µM, first compound 3.16 µM): 26.8% | viability, T/C (second compound 0.01 µM, first compound 10 µM): 16.2% | viability, T/C [9]: 90.1% | viability, T/C [10]: 99.3% | viability, T/C [11]: 77.7% | viability, T/C [12]: 44.5% | viability, T/C (second compound 0.0316 µM, first compound 3.16 µM): 27.1% | viability, T/C (second compound 0.0316 µM, first compound 10 µM): 14% | viability, T/C [13]: 82.7% | viability, T/C [14]: 80.7% | viability, T/C [15]: 78.2% | viability, T/C [16]: 52.4% | viability, T/C (second compound 0.1 µM, first compound 3.16 µM): 25.3% | viability, T/C (second compound 0.1 µM, first compound 10 µM): 13.6% | viability, T/C [17]: 83.1% | viability, T/C [18]: 75.6% | viability, T/C [19]: 63.8% | viability, T/C [20]: 41.3% | viability, T/C (second compound 0.316 µM, first compound 3.16 µM): 24.6% | viability, T/C (second compound 0.316 µM, first compound 10 µM): 14.2% | viability, T/C [21]: 65.2% | viability, T/C [22]: 67.8% | viability, T/C [23]: 56.6% | viability, T/C [24]: 32.2% | viability, T/C (second compound 1 µM, first compound 3.16 µM): 19% | viability, T/C (second compound 1 µM, first compound 10 µM): 12.6%

CCN1CCN(Cc2ccc(Nc3ncc(F)c(-c4cc(F)c5nc(C)n(C(C)C)c5c4)n3)nc2)CC1 + CC(Nc1ccc2c(c1)OCCn1cc(N3C(=O)OCC3C(F)F)nc1-2)C(N)=O
IC50 (second compound 0.00316 µM): > 1000 nM | IC50 (second compound 0.01 µM): > 1000 nM | IC50 (second compound 0.0316 µM): > 1000 nM | IC50 (second compound 0.1 µM): > 1000 nM | IC50 (second compound 0.316 µM): > 1000 nM | IC50 (second compound 1 µM): > 1000 nM | viability, T/C [25]: 105% | viability, T/C [26]: 98.8% | viability, T/C [1]: 105% | viability, T/C [2]: 113% | viability, T/C [3]: 118% | viability, T/C [4]: 119% | viability, T/C [27]: 95.5% | viability, T/C [28]: 102% | viability, T/C [5]: 110% | viability, T/C [6]: 110% | viability, T/C [7]: 113% | viability, T/C [8]: 107% | viability, T/C [29]: 105% | viability, T/C [30]: 99.2% | viability, T/C [9]: 112% | viability, T/C [10]: 95.8% | viability, T/C [11]: 121% | viability, T/C [12]: 124% | viability, T/C [31]: 96.4% | viability, T/C [32]: 104% | viability, T/C [13]: 102% | viability, T/C [14]: 105% | viability, T/C [15]: 109% | viability, T/C [16]: 103% | viability, T/C [33]: 85.5% | viability, T/C [34]: 82.6% | viability, T/C [17]: 99.9% | viability, T/C [18]: 98.6% | viability, T/C [19]: 90.7% | viability, T/C [20]: 96.9% | viability, T/C [35]: 70.8% | viability, T/C [36]: 72.4% | viability, T/C [21]: 64.3% | viability, T/C [22]: 73.1% | viability, T/C [23]: 87.8% | viability, T/C [24]: 77.8%

Cn1ncnc1[C@H]1c2n[nH]c(=O)c3cc(F)cc(c23)N[C@@H]1c1ccc(F)cc1 + CC(Nc1ccc2c(c1)OCCn1cc(N3C(=O)OCC3C(F)F)nc1-2)C(N)=O
IC50 (second compound 0.00316 µM): > 100 nM | IC50 (second compound 0.01 µM): > 100 nM | IC50 (second compound 0.0316 µM): > 100 nM | IC50 (second compound 0.1 µM): > 100 nM | IC50 (second compound 0.316 µM): > 100 nM | IC50 (second compound 1 µM): 68.3 nM | viability, T/C (second compound 0.00316 µM, first compound 0.000316 µM): 108% | viability, T/C (second compound 0.00316 µM, first compound 0.001 µM): 110% | viability, T/C [25]: 102% | viability, T/C [26]: 83.5% | viability, T/C [1]: 75.6% | viability, T/C [2]: 63.8% | viability, T/C (second compound 0.01 µM, first compound 0.000316 µM): 115% | viability, T/C (second compound 0.01 µM, first compound 0.001 µM): 106% | viability, T/C [27]: 97.3% | viability, T/C [28]: 86.4% | viability, T/C [5]: 69.4% | viability, T/C [6]: 62% | viability, T/C (second compound 0.0316 µM, first compound 0.000316 µM): 101% | viability, T/C (second compound 0.0316 µM, first compound 0.001 µM): 99.2% | viability, T/C [29]: 96% | viability, T/C [30]: 79.2% | viability, T/C [9]: 82% | viability, T/C [10]: 61.7% | viability, T/C (second compound 0.1 µM, first compound 0.000316 µM): 97.8% | viability, T/C (second compound 0.1 µM, first compound 0.001 µM): 93.4% | viability, T/C [31]: 105% | viability, T/C [32]: 77.5% | viability, T/C [13]: 70.2% | viability, T/C [14]: 55.3% | viability, T/C (second compound 0.316 µM, first compound 0.000316 µM): 76% | viability, T/C (second compound 0.316 µM, first compound 0.001 µM): 86.7% | viability, T/C [33]: 73.3% | viability, T/C [34]: 69.7% | viability, T/C [17]: 60.9% | viability, T/C [18]: 55.5% | viability, T/C (second compound 1 µM, first compound 0.000316 µM): 69.5% | viability, T/C (second compound 1 µM, first compound 0.001 µM): 60.5% | viability, T/C [35]: 69.2% | viability, T/C [36]: 66% | viability, T/C [21]: 61% | viability, T/C [22]: 44.4%
